Results from US11896646B2, “Formulated and/or co-formulated liposome compositions containing toll-like receptor (“TLR”) agonist prodrugs useful in the treatment of cancer and methods thereof” (Nammi Therapeutics, Inc., priority 2020, dated 2024).

Key:
[1] = target: T1, TLR4 (Mus musculus, UniProt Q9QUK6); assay: RAW-Blue SEAP reporter / QUANTI-Blue assay, TLR4 (Example 18); assay type: cell-based; settings: RAW-Blue cells, 24 hr incubation, different concentration
T1 construct: host or cells: RAW-Blue cells
T1 sequence (Q9QUK6 26-835): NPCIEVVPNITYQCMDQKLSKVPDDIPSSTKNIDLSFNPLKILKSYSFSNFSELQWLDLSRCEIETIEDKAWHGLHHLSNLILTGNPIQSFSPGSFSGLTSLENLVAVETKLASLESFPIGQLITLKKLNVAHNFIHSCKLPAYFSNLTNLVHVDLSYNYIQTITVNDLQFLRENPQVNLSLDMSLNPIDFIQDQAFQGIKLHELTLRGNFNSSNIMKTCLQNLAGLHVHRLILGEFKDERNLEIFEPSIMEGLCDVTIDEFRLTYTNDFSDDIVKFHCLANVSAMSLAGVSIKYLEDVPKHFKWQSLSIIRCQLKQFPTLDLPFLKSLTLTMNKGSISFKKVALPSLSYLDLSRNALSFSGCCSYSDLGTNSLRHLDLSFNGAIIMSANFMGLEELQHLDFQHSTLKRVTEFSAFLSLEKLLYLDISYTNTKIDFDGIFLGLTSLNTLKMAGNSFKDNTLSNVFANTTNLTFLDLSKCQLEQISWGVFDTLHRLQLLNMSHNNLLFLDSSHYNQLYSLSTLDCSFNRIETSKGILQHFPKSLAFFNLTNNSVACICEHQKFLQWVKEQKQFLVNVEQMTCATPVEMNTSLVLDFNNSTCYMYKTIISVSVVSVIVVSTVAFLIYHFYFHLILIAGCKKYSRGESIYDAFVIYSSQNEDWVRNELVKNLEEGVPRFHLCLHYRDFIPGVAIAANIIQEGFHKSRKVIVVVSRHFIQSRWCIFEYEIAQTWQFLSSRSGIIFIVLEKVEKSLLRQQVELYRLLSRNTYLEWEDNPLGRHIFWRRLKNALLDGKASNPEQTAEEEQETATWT
T1 sequence (Q9JHF9 19-160 partner): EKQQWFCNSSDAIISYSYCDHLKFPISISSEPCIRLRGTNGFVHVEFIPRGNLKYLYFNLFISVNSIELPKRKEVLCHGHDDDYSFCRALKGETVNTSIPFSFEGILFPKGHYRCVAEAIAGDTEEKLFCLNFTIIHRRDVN
Protocol: In another experiment, in vitro biological activity of LNP-TR8 and to further confirm targeting of TLR4, the following experiment(s) were performed using a RAW-Blue™ (NF-[…]/AP-1 inducible secreted embryonic alkaline phosphatase (SEAP) reporter gene) Cells and QUANTI-Blue™ (alkaline phosphatase assay) assay (InvivoGen, San Diego, CA). Briefly, Raw Blue™ (NF-κB/AP-1 inducible secreted embryonic alkaline phosphatase (SEAP) reporter gene) cells that express human Toll Like Receptors (TLRs) (with the exception of TLR5) and an NF-κB/AP-1-inducible SEAP (secreted embryonic alkaline phosphatase) reporter gene were used. Stimulation of these cells with TR8 lead to NF-κB activation through TLR4 which is measured by detection of SEAP levels. RAW-Blue™ (NF-κB/AP-1 inducible secreted embryonicalkaline phosphatase (SEAP) reporter gene) Cells were incubated with TR8 and LNP-TR8 at different concentration. After twenty-four (24) hr. incubation with the compounds, TLR stimulation was assessed by measuring the levels of SEAP optimal density (OD) using a QUANTI-Blue™ (alkaline phosphatase assay) assay. ODs were normalized to the control (untreated) group. […] (See, FIG. 26).

[2] = target: T2, human TLR8 (Homo sapiens, UniProt Q9NR97); assay: HEK-Blue TLR8 SEAP reporter / QUANTI-Blue assay (Example 20); assay type: cell-based; settings: HEK-Blue TLR8 cells, 24 hr incubation, different concentration
T2 construct: host or cells: HEK-Blue hTLR8 (HEK 293)
T2 sequence (Q9NR97 27-1041): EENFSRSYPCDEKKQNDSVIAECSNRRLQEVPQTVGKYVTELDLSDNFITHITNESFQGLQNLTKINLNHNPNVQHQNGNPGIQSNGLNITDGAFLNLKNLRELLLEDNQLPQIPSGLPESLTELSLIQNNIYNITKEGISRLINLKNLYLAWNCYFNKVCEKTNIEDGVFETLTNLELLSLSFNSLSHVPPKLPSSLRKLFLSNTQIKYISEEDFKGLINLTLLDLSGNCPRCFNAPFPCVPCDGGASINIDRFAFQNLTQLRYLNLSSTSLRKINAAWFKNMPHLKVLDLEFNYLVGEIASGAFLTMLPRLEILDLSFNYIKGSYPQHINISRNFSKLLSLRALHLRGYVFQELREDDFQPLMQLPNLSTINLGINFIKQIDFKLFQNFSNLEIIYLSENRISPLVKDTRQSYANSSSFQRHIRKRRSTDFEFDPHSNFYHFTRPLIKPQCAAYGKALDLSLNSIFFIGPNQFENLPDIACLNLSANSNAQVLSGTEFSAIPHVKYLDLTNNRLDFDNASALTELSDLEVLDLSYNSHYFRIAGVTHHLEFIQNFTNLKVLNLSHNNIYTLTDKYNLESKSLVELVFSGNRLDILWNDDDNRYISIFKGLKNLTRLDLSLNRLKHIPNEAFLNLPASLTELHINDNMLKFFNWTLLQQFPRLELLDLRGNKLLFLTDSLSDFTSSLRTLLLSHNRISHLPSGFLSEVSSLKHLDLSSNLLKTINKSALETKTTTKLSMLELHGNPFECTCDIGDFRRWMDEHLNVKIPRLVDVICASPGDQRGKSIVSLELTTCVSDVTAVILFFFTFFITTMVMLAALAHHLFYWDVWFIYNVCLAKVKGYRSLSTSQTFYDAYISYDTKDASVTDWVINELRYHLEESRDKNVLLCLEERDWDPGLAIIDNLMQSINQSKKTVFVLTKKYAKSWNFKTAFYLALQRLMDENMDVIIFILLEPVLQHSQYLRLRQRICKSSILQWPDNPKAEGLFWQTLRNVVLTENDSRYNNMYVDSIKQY
Protocol: (§1) In another experiment, in vitro biological activity of LNP-TR3 and to further confirm targeting of TLR7 and not targeting TLR8, the following experiment(s) were performed using a RAW-Blue™ (NF-κB/AP-1 inducible secreted embryonic alkaline phosphatase (SEAP) reporter gene) Cells and QUANTI-Blue™ (alkaline phosphatase assay), HEK-Blue™ (HEK 293 cell line expressing a TLR gene and an NF-κB/AP-1 inducible secreted embryonic alkaline phosphatase (SEAP) reporter gene), and hTLR8 cell line assay (InvivoGen, San Diego, CA). Briefly, despite Raw Blue™ (NF-κB/AP-1 inducible secreted embryonic alkaline phosphatase (SEAP) reporter gene) cells that express a variety of human Toll Like Receptors (TLRs) (including TLR7/8 but with the exception of TLR5) hTLR8 cells dominantly express the human TLR8. Additionally, an NE κB/AP-1-inducible SEAP (secreted embryonic alkaline phosphatase) reporter gene were used. Stimulation of these cells with TR3 lead to NF-κB activation through TLR8 which is measured by detection of SEAP levels.

[3] = tested on: TLRs in RAW-Blue cells; assay: RAW-Blue SEAP reporter / QUANTI-Blue assay (Example 20); assay type: cell-based, mouse; settings: 24 hr incubation, different concentration
Protocol: as §1, with “Additionally, an NE κB/AP-1-inducible SEAP (secreted embryonic alkaline phosphatase) reporter gene were used.” left out
RAW-Blue™ (NF-κB/AP-1 inducible secreted embryonic alkaline phosphatase (SEAP) reporter gene) Cells were incubated with TR5, LNP-TR5, TR3, TR3+Stearic Acid, and LNP-TR3 at different concentration. After twenty-four (24) hr. incubation with the compounds, TLR stimulation was assessed by measuring the levels of SEAP optimal density (OD) using a QUANTI-Blue™ (alkaline phosphatase assay) assay. […]

Row | TLR stimulation (SEAP OD normalized to untreated control) [1] | Compound | TLR stimulation (SEAP OD normalized to untreated control) [2] | TLR stimulation (SEAP OD normalized to untreated control) [3]
1 | could cause stimulation of TLR4 | Monophosphoryl Lipid A (Synthetic) [TR8] | – | –
2 | – | CCCCCCCCCCCCCCCCCCS(=O)(=O)NCCCCn1c(CC)nc2c(N)nc3ccccc3c21 [TR3+Stearic Acid] | only TR5 in prodrug and liposome form were able to stimulate the cells | stimulated TLRs
